From patent US9884041B2 (YONSEI […], INC., priority 2010, dated 2018)

Tests used:
C57BL/6J mice [1] = assay: Body weight, food intake and visceral fat-pad weights of mice fed test diets (HFD-induced obesity); type: in vivo; conditions: HFD with 0.05% piperonal, 10 weeks
Description: (§1) The obesity-inducing control diet used in the test was high-fat diet (HFD: 40% fat calorie, 17 g lard+3% corn oil/100 g diet). […] The normal diet (ND) was prepared under AIN-76 rodent diet (American Institute of Nutrition, Report of the American Institute of Nutrition ad hoc committee on standards for nutritional studies. J. Nutr. 107: 1340-1348, 1977) (see Table 1). Piperonal was purchased from Sigma-Aldrich.
(§2) 5-week-old male C57BL/6J mice (Orient, Korea) were accustomed to the laboratory environment for 1 week while feeding solid feed. Then, they were randomly divided into normal diet, high-fat diet and test groups and bred for a total of 10 weeks. The diet was given between 10 and 11 a.m. every day together with water. Food intake was measured every day and body weight was measured once a week. In order to avoid transient body weight increase after feed intake, body weight was measured 2 hours after removing the feed. After fasting the test animal for at least 12 hours and anesthetizing with diethyl ether, blood, liver and visceral fat (epididymal fat, perirenal fat, mesenteric fat and retroperitoneal fat) were taken and weighed after washing with 0.1 M PBS (pH 7.4). Blood taken from the abdominal aorta was centrifuged at 1000×g for 15 minutes for the separation of plasma.
The food efficiency ratio was calculated by dividing the total body weight gain during the experimental period (g) by the total food intake (g) (FIGS. 1 and 2).

C57BL/6J mice [2] = assay: Plasma lipid and glucose levels of mice fed test diets; type: in vivo; conditions: HFD with 0.05% piperonal, 10 weeks
Description: as §1, §2
After 10 weeks of breeding, total cholesterol, HDL-cholesterol, triglyceride and glucose levels in the plasma and lipid levels in the liver tissue were measured as follows. Total cholesterol, HDL-cholesterol, triglyceride, free fatty acid and glucose levels in the plasma were measured twice for each using a commercially available kit (Bio Clinical System). LDL+VLDL cholesterol levels in the blood were calculated by subtracting HDL-cholesterol levels from the total cholesterol levels.

C57BL/6J mice [3] = assay: Liver weights, liver lipid levels and liver function indicators (ALT, AST) of mice fed test diets; type: in vivo; conditions: HFD with 0.05% piperonal, 10 weeks
Description: as §1, §2
Lipids were extracted from the liver tissue according to Folch et al.'s method (Folch J et al., J Biol Chem. 226: 497-509 (1957)). After adding 1 mL of distilled water to 0.25 g of liver tissue, the liver tissue was homogenized using a Polytron homogenizer (IKA-Werke GmbH & Co., Ultra-Turrax, Staufen, Germany). After adding 5 mL of chloroform:methanol solution (2:1, v/v) to the homogenate and mixing well, the mixture was centrifuged at 1000×g for 10 minutes. After adding 2 mL of chloroform:methanol solution (2:1, v/v) again to the supernatant, the same procedure was repeated to completely separate the lipid components of the liver. After adding 3 mL of chloroform:methanol:0.05% CaCl2 (3:48:47, v/v/v) solution to the remaining pellets and mixing well for 1 minute, followed by centrifugation at 1000×g for 10 minutes, the resulting pellets were completely dried with nitrogen gas. The dried lipids were dissolved in 1 mL of methanol and then analyzed.
The same kit (Bio Clinical System) as that used for the plasma analysis was used to measure the triglyceride, cholesterol and free fatty acid levels of the liver tissue.
The activity of ALT (alanine aminotransferase) and AST (aspartate aminotransferase) used as liver function indicator were measured twice for each using a commercially available kit (Bio Clinical System, Korea).

UCP1 = assay: RT-PCR analysis of UCP1 gene expression in mouse visceral fat tissues; type: in vivo, mice; conditions: mRNA by RT-PCR, normalized to GAPDH, to the similar level to the ND group
Description: (§3) FIG. 7 represents the expression profiles of UCPs genes in the visceral fat tissues of mice. The left panel represents images of RT-PCR analysis results for UCP1 and UCP3, and the right panel represents relative expression levels of these genes. The data were normalized to GAPDH mRNA levels and expressed as relative values to those from ND mouse. The results are represented as mean±SEM (standard error) of values obtained from RNA sample of eight mice with three independent experiments. The characters above the bars indicate significant difference in dietary groups by one-way analysis of variance (ANOVA) test and Duncan's multiple range test (P<0.05).
(§4) After adding 1 mL of Trizol agent per 0.1 g of visceral fat tissues, the mixture was homogenized and centrifuged at 12,000×g for 10 min at 4° C. The supernatant was transferred to a new tube and 200 μl of chloroform was added to the tube, followed by vortexing. The same procedure was repeated twice and then the supernatant was transferred to a new tube, followed by addition of isopropanol and the supernatant at 1:1 ratio. […] The RNA sample concentration was measured at a wavelength of 260 nm and 280 nm using a UV/VIS spectrophotometer (Beckman coulter, DU730) and the integrity of RNA sample was verified by agarose gel electrophoresis. […]

UCP3 = assay: RT-PCR analysis of UCP3 gene expression in mouse visceral fat tissues; type: in vivo, mice; conditions: mRNA by RT-PCR, normalized to GAPDH, to the similar level to the ND group
Description: as §3, §4

C/EBPα = assay: RT-PCR analysis of C/EBPα gene expression in mouse liver tissues; type: in vivo, mice; conditions: mRNA by RT-PCR, vs HFD, to levels similar for the ND
Description: (§5) FIG. 8 represents the expression profiles of genes relating to lipogenesis in mice liver tissues. The left panel represents images of RT-PCR analysis results for C/EBPα, PPARγ2 and aP2, and the right panel represents relative expression levels of these genes. The data were normalized to GAPDH mRNA levels and expressed as relative values to those from ND mouse. The results are represented as mean±SEM (standard error) of values obtained from RNA sample of eight mice with three independent experiments. The characters above the bars indicate significant difference in dietary groups by one-way analysis of variance (ANOVA) test and Duncan's multiple range test (P<0.05).
as §4, with “liver” for “visceral fat”

PPARγ2 = assay: RT-PCR analysis of PPARγ2 gene expression in mouse liver tissues; type: in vivo, mice; conditions: mRNA by RT-PCR, vs HFD, to levels similar for the ND
Description: as §5
as §4, with “liver” for “visceral fat”

aP2 = assay: RT-PCR analysis of aP2 gene expression in mouse liver tissues; type: in vivo, mice; conditions: mRNA by RT-PCR, vs HFD, to levels similar for the ND
Description: as §5
as §4, with “liver” for “visceral fat”

TNF-α = assay: RT-PCR analysis of TNF-α gene expression in mouse liver tissues; type: in vivo, mice; conditions: mRNA by RT-PCR
Description: as §5, with “9” for “8”, “inflammation” for “lipogenesis”, “TNFα” for “C/EBPα, PPARγ2”, “IL-6,” for “aP2,”
as §4, with “liver” for “visceral fat”

IL-6 = assay: RT-PCR analysis of IL-6 gene expression in mouse liver tissues; type: in vivo, mice; conditions: mRNA by RT-PCR
Description: as §5, with “9” for “8”, “inflammation” for “lipogenesis”, “TNFα” for “C/EBPα, PPARγ2”, “IL-6,” for “aP2,”
as §4, with “liver” for “visceral fat”

[4] = tested on: cancinogenesis animal model; conditions: in vivo; cited from earlier work
patients = conditions: sense of smell stimulated through nasal cannula during MRI for cancer diagnosis; cited from earlier work
rats [5] = conditions: cited from earlier work
human = human took 10 g of piperonal; cited from earlier work
rats [6] = conditions: feed containing 0.1% piperonal and 0.5% piperonal, 2 years; cited from earlier work

SMILES: O=Cc1ccc2c(c1)OCO2 [piperonal, 1,3-benzodioxole-5-carboxaldehyde]
- decrease of body weight gain as compared to HFD (C57BL/6J mice [1]): 19%
- reduced weight of epididymal fat-pad as compared to HFD (C57BL/6J mice [1]): 11%
- reduced weight of mesenteric fat-pad as compared to HFD (C57BL/6J mice [1]): 20%
- reduced weight of perirenal fat-pad as compared to HFD (C57BL/6J mice [1]): 35%
- reduced weight of retroperitoneal fat-pad as compared to HFD (C57BL/6J mice [1]): 8%
- reduction of total visceral fat weight, POD group vs HFD group (C57BL/6J mice [1]; P<0.001): 15%
- daily food intake (C57BL/6J mice [1]; vs HFD): no significant change
- lower atherogenic indices as compared to HFD group (C57BL/6J mice [2]): 17%
- lower plasma level of free fatty acid as compared to HFD group (C57BL/6J mice [2]): 17%
- lower plasma level of total cholesterol as compared to HFD group (C57BL/6J mice [2]): 14%
- lower plasma level of triglyceride as compared to HFD group (C57BL/6J mice [2]): 21%
- reduction of fasting blood sugar level as compared to HFD (C57BL/6J mice [2]): 27%
- lower plasma level of LDL+VLDL cholesterol as compared to HFD group (C57BL/6J mice [2]; total cholesterol minus HDL-cholesterol): 18%
- decrease of absolute organ weight of liver as compared to HFD (C57BL/6J mice [3]): 23%
- decreased level of cholesterol in liver tissue as compared to HFD (C57BL/6J mice [3]): 39%
- decreased level of free fatty acid in liver tissue as compared to HFD (C57BL/6J mice [3]): 27%
- decreased level of triglyceride in liver tissue as compared to HFD (C57BL/6J mice [3]): 13%
- decreased plasma activity of ALT as compared to HFD group (C57BL/6J mice [3]): 27%
- decreased plasma activity of AST as compared to HFD group (C57BL/6J mice [3]): 15%
- HFD-induced decrease in expression of UCP1 gene (UCP1): significantly reversed
- HFD-induced decrease in expression of UCP3 gene (UCP3): significantly reversed
- expression of C/EBPα gene (C/EBPα): significantly decreased
- expression of PPARγ2 gene (PPARγ2): significantly decreased
- expression of aP2 gene (aP2): significantly decreased
- HFD-induced elevation in the expression of TNF-α (TNF-α): significantly reversed
- HFD-induced elevation in the expression of IL-6 (IL-6): significantly reversed
- effect in carcinogenesis animal model [4]: cancer inhibitory effect
- anxiety of patients during MRI (patients): relief from anxiety
- LD50 (rats [5]): more than 2,700 mg/kg
- toxicity in human (human): no toxicity
- toxicity in rats (rats [6]): no toxicity
